Reference: the supplement of paper PMC10307832

Legend:
Experiment in all cases: relative viability (nuclei count vs DMSO), 5 days (fraction); higher = more cells survive
JZL-184 + Crizotinib = compound: C1CN(CCC1C(C2=CC3=C(C=C2)OCO3)(C4=CC5=C(C=C4)OCO5)O)C(=O)OC6=CC=C(C=C6)[N+](=O)[O-] [JZL-184] + C[C@@H](Oc1cc(-c2cnn(C3CCNCC3)c2)cnc1N)c1c(Cl)ccc(F)c1Cl [Crizotinib] (partner 1 µM)
Procedure, shortened: (§1)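 Relative viability was taken as the ratio of nuclei in treated wells to nuclei in vehicle wells. Lung cancer cell lines in 1536-well plates received compounds by pin tool one day after seeding, either one drug alone or a fixed anchor-drug dose plus five library-drug doses (not always all listed) in √10 steps. Nuclei were counted on 4× images after 5 days of treatment, and values are medians of duplicate plates.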

JZL-184 + Linsitinib = compound: C1CN(CCC1C(C2=CC3=C(C=C2)OCO3)(C4=CC5=C(C=C4)OCO5)O)C(=O)OC6=CC=C(C=C6)[N+](=O)[O-] [JZL-184] + C[C@]1(O)C[C@@H](c2nc(-c3ccc4ccc(-c5ccccc5)nc4c3)c3c(N)nccn32)C1 [Linsitinib] (partner 1 µM)
Procedure, shortened: as §1

JZL-184 + Bortezomib = compound: C1CN(CCC1C(C2=CC3=C(C=C2)OCO3)(C4=CC5=C(C=C4)OCO5)O)C(=O)OC6=CC=C(C=C6)[N+](=O)[O-] [JZL-184] + CC(C)C[C@H](NC(=O)[C@H](Cc1ccccc1)NC(=O)c1cnccn1)B(O)O [Bortezomib] (partner 0.002 µM)
Procedure, shortened: as §1

JZL-184 + Alpelisib = compound: C1CN(CCC1C(C2=CC3=C(C=C2)OCO3)(C4=CC5=C(C=C4)OCO5)O)C(=O)OC6=CC=C(C=C6)[N+](=O)[O-] [JZL-184] + Cc1nc(NC(=O)N2CCC[C@H]2C(N)=O)sc1-c1ccnc(C(C)(C)C(F)(F)F)c1 [Alpelisib] (partner 2 µM)
Procedure, shortened: as §1

JZL-184 + Pictilisib = compound: C1CN(CCC1C(C2=CC3=C(C=C2)OCO3)(C4=CC5=C(C=C4)OCO5)O)C(=O)OC6=CC=C(C=C6)[N+](=O)[O-] [JZL-184] + CS(=O)(=O)N1CCN(Cc2cc3nc(-c4cccc5[nH]ncc45)nc(N4CCOCC4)c3s2)CC1 [Pictilisib] (partner 1 µM)
Procedure, shortened: as §1

Cell Line | relative viability (JZL-184 + Crizotinib; first compound 0.04 µM) | relative viability (JZL-184 + Crizotinib; first compound 0.4 µM) | relative viability (JZL-184 + Crizotinib; first compound 1.265 µM) | relative viability (JZL-184 + Crizotinib; first compound 4 µM) | relative viability (JZL-184 + Linsitinib; first compound 0.04 µM) | relative viability (JZL-184 + Linsitinib; first compound 0.4 µM) | relative viability (JZL-184 + Linsitinib; first compound 1.265 µM) | relative viability (JZL-184 + Linsitinib; first compound 4 µM) | relative viability (JZL-184 + Bortezomib; first compound 0.04 µM) | relative viability (JZL-184 + Bortezomib; first compound 0.4 µM) | relative viability (JZL-184 + Bortezomib; first compound 1.265 µM) | relative viability (JZL-184 + Bortezomib; first compound 4 µM) | relative viability (JZL-184 + Alpelisib; first compound 0.04 µM) | relative viability (JZL-184 + Alpelisib; first compound 0.4 µM) | relative viability (JZL-184 + Alpelisib; first compound 1.265 µM) | relative viability (JZL-184 + Alpelisib; first compound 4 µM) | relative viability (JZL-184 + Pictilisib; first compound 0.04 µM) | relative viability (JZL-184 + Pictilisib; first compound 0.4 µM) | relative viability (JZL-184 + Pictilisib; first compound 1.265 µM) | relative viability (JZL-184 + Pictilisib; first compound 4 µM)
LU99A | 0.657 | 0.529 | 0.622 | 0.63 | 0.582 | 0.511 | 0.529 | 0.442 | 1.29 | 1.09 | 1.32 | 1.22 | 0.587 | 0.535 | 0.538 | 0.486 | 0.353 | 0.315 | 0.329 | 0.313
LXF-289 | 0.813 | 0.819 | 0.765 | 0.75 | 1.05 | 0.94 | 0.971 | 0.924 | 1.01 | 0.953 | 1.04 | 0.933 | 0.977 | 1.05 | 1.06 | 0.951 | 0.865 | 0.71 | 0.842 | 0.779
NCI-H23 | 0.611 | 0.444 | 0.521 | 0.43 | 0.552 | 0.56 | 0.651 | 0.728 | 1.24 | 0.765 | 1.21 | 1.07 | 0.876 | 0.631 | 0.587 | 0.646 | 0.561 | 0.432 | 0.538 | 0.492
NCI-H322M | 0.965 | 0.971 | 0.886 | 0.825 | 0.823 | 0.938 | 0.984 | 0.907 | 1.15 | 1.16 | 1.27 | 1.27 | 0.656 | 0.777 | 0.749 | 0.775 | 0.494 | 0.472 | 0.554 | 0.495
NCI-H441 | 0.767 | 0.54 | 0.793 | 0.58 | 0.534 | 0.401 | 0.672 | 0.606 | 0.379 | 0.373 | 0.227 | 0.591 | 1.11 | 0.634 | 0.755 | 1.09 | 0.631 | 0.409 | 0.607 | 0.423
NCI-H460 | 0.993 | 0.81 | 0.839 | 0.912 | 1.03 | 0.623 | 0.87 | 0.72 | 1.83 | 1.05 | 1.05 | 1.11 | 0.643 | 0.465 | 0.47 | 0.401 | 0.385 | 0.332 | 0.404 | 0.374
NCI-H520 | 0.813 | 0.707 | 0.907 | 0.665 | 1.15 | 0.929 | 0.926 | 0.897 | 0.648 | 0.479 | 0.582 | 0.531 | 1.02 | 0.965 | 1.02 | 0.897 | 0.351 | 0.221 | 0.311 | 0.245
NCI-H596 | 1.19 | 0.955 | 1.03 | 1.06 | 1.21 | 0.978 | 1.05 | 1.05 | 1.21 | 0.948 | 1.17 | 1.08 | 0.501 | 0.487 | 0.553 | 0.37 | 0.397 | 0.393 | 0.429 | 0.356
NCI-H647 | 1.36 | 0.956 | 1 | 1.02 | 1.18 | 1.06 | 1.19 | 1.26 | 1.32 | 0.922 | 1.14 | 0.974 | 1.15 | 0.957 | 1.07 | 1.2 | 0.495 | 0.294 | 0.566 | 0.468
NCI-H650 | 0.872 | 0.73 | 0.814 | 0.685 | 0.966 | 0.62 | 0.933 | 0.747 | 0.912 | 0.801 | 1.04 | 0.738 | 1.23 | 0.951 | 1.16 | 1.1 | 1.08 | 0.857 | 0.884 | 0.876
NCI-H661 | 0.933 |  | 0.935 | 0.928 | 0.542 | 0.477 | 0.712 | 0.521 | 0.763 | 0.803 | 0.796 | 0.889 | 0.453 | 0.483 | 0.707 | 0.717 | 0.372 |  | 0.455 | 0.452
NCI-H727 | 0.876 | 0.728 | 0.903 | 0.864 | 0.203 | 0.314 | 0.233 | 0.373 | 0.988 | 0.689 | 0.797 | 0.802 | 0.539 | 0.627 | 0.542 | 0.629 | 0.505 | 0.393 | 0.333 | 0.473
NCI-H838 | 1.05 | 0.885 | 0.941 | 0.76 | 1.23 | 1.05 | 0.98 | 0.98 | 1.13 | 0.828 | 0.819 | 0.636 | 1.08 | 1.09 | 1.03 | 0.957 | 0.53 | 0.449 | 0.499 | 0.482
NCI-H1355 | 1.06 | 1.01 | 1.22 | 0.925 | 0.606 | 0.856 | 0.842 | 0.8 | 1.28 | 1.18 | 1.18 | 1.18 | 0.774 | 0.826 | 0.828 | 0.81 | 0.431 | 0.357 | 0.555 | 0.396
NCI-H1437 | 0.938 | 0.889 | 0.888 | 0.841 | 1.24 | 1.01 | 1.07 | 0.958 | 0.594 | 0.512 | 0.479 | 0.373 | 1.12 | 0.971 | 0.92 | 0.916 | 0.466 | 0.408 | 0.366 | 0.468
